pIC50: −log10 of the molar value.
What follows are compounds tested against T1, MAGL (Homo sapiens, UniProt Q99685) (assay: 2-AG assay (MAGL inhibitory activity, hydrolysis of 2-arachidonoylglycerol to arachidonic acid followed by mass spectrometry)). Settings: 8 μM 2-arachidonoylglycerol, 15 min pre-incubation, 30 min incubation at RT, RapidFire MS readout.
T1 sequence (Q99685 1-303): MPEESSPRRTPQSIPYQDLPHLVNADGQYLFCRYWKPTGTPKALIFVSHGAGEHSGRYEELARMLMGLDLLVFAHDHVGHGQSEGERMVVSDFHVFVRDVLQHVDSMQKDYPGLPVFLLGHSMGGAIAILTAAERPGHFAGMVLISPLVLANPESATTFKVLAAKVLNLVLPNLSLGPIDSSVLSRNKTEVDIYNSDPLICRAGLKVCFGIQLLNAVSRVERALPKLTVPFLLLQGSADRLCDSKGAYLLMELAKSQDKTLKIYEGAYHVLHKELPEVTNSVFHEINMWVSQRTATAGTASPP
Type: biochemical
Method in brief: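 Arachidonic acid released from 8 μM 2-arachidonoylglycerol was quantified by online SPE triple-quadrupole MS (negative ESI, 303.1→259.1), normalised to d8-arachidonic acid internal standard. Reaction ran 30 min at RT after 15 min RT compound pre-incubation with […] MAGL in TRIS/EDTA/Tween-20 buffer, 2.5% DMSO.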

| SMILES | pIC50 |
| --- | --- |
| O=C(N1CC2(CC(n3cnc(C4(O)CC4)n3)C2)C1)N1CC2(CC[C@H](Cc3cccc(S(=O)(=O)C(F)(F)F)c3)C2)C1 [Example 361, [6-[3-(1-hydroxycyclopropyl)-1,2,4-triazol-1-yl]-2-azaspiro[3.3]heptan-2-yl]-[(6R)-6-[[3-(trifluoromethylsulfonyl)phenyl]methyl]-2-azaspiro[3.4]octan-2-yl]methanone] | 9.68 |
| O=C(c1cnc(OCC2(C(F)(F)F)CC2)c(F)c1)N1CC2(CC(n3cnc(C4CC4)n3)C2)C1 [Example 26, [6-(3-cyclopropyl-1,2,4-triazol-1-yl)-2-azaspiro[3.3]heptan-2-yl]−[5-fluoro-6-[[1-(trifluoromethyl)cyclopropyl]methoxy]-3-pyridyl]methanone] | 7.70 |
| O=C(N1CC(Oc2cccc(C3CC3)c2Cl)C1)N1CC2(CC(n3cnc(C4CC4)n3)C2)C1 [Example 94, (3-(2-chloro-3-cyclopropylphenoxy)azetidin-1-yl)(6-(3-cyclopropyl-1H-1,2,4-triazol-1-yl)-2-azaspiro[3.3]heptan-2-yl)methanone] | 9.70 |
| CC1(O)CN(c2ccc(C3CN(C(=O)N4CC5(CC(n6cnc(C7CC7)n6)C5)C4)C3)cn2)C1 [Example 504, [6-(3-cyclopropyl-1,2,4-triazol-1-yl)-2-azaspiro[3.3]heptan-2-yl]-[3-[6-(3-hydroxy-3-methyl-azetidin-1-yl)-3-pyridyl]azetidin-1-yl]methanone] | 7.86 |
| O=C(N1CC2(CC(Cc3ccc(OC(F)(F)F)nc3)C2)C1)N1CC2(CC(n3cnc(C4(O)CC4)n3)C2)C1 [Example 381] | 9.36 |
| O=C(N1CC(OCc2ccc(S(=O)(=O)C(F)(F)F)cc2)C1)N1CC2(CC(c3ccc(C(F)(F)F)nc3)C2)C1 [Example 520, [6-[6-(trifluoromethyl)-3-pyridyl]-2-azaspiro[3.3]heptan-2-yl]-[3-[[4-(trifluoromethylsulfonyl)phenyl]methoxy]azetidin-1-yl]methanone] | 6.26 |
| Cc1oncc1S(=O)(=O)N1CC2(CN(C(=O)N3CC4(CC(n5cnc(C6CC6)n5)C4)C3)C2)C1 [Example 300, [6-(3-cyclopropyl-1,2,4-triazol-1-yl)-2-azaspiro[3.3]heptan-2-yl]-[2-(5-methylisoxazol-4-yl)sulfonyl-2,6-diazaspiro[3.3]heptan-6-yl]methanone] | 7.02 |
| CS(=O)(=O)c1cc(F)cc(CC2CC3(C2)CN(C(=O)N2CC4(CC(n5cnc(C(F)(F)F)n5)C4)C2)C3)c1 [Example 460, [6-[(3-fluoro-5-methylsulfonyl-phenyl)methyl]-2-azaspiro[3.3]heptan-2-yl]-[6-[3-(trifluoromethyl)-1,2,4-triazol-1-yl]-2-azaspiro[3.3]heptan-2-yl]methanone] | 9.03 |
| O=C(O)c1ccccc1CN1CC2(C1)CN(C(=O)N1CC3(CC(n4cnc(C5CC5)n4)C3)C1)C2 [Example 313, 2-[[2-[6-(3-cyclopropyl-1,2,4-triazol-1-yl)-2-azaspiro[3.3]heptane-2-carbonyl]-2,6-diazaspiro[3.3]heptan-6-yl]methyl]benzoic acid] | 6.69 |
| O=C(N1CC(Oc2nccc(C3CC3)c2Cl)C1)N1CC2(CC(n3cnc(C4CC4)n3)C2)C1 [Example 185, [3-[(3-chloro-4-cyclopropyl-2-pyridyl)oxy]azetidin-1-yl]-[6-(3-cyclopropyl-1,2,4-triazol-1-yl)-2-azaspiro[3.3]heptan-2-yl]methanone] | 10.00 |
| O=C(N1CC2(CC(n3cnc(C4CC4)n3)C2)C1)N1CC2(CN(Cc3ccc(F)cc3F)C2)C1 [Example 234, [6-(3-cyclopropyl-1,2,4-triazol-1-yl)-2-azaspiro[3.3]heptan-2-yl]-[6-[(2,4-difluorophenyl)methyl]-2,6-diazaspiro[3.3]heptan-2-yl]methanone] | 8.27 |
| Cc1ccn(C2CC3(C2)CN(C(=O)c2ccc(-c4noc(C(C)(C)C)n4)cc2)C3)n1 [Example 148, [4-(5-tert-butyl-1,2,4-oxadiazol-3-yl)phenyl]-[6-(3-methylpyrazol-1-yl)-2-azaspiro[3.3]heptan-2-yl]methanone] | 5.85 |
| Cc1ccc(OC2CN(C(=O)N3CC4(CC(n5cnc(C6CC6)n5)C4)C3)C2)c(F)c1 [Example 241, (6-(3-cyclopropyl-1H-1,2,4-triazol-1-yl)-2-azaspiro[3.3]heptan-2-yl)(3-(2-fluoro-4-methylphenoxy)azetidin-1-yl)methanone] | 8.06 |
| O=C(N1CC(OCc2ccc(S(F)(F)(F)(F)F)cc2)C1)N1CC2(CC(n3cnc(C(F)(F)F)c3)C2)C1 [Example 307, [3-[[4-(pentafluoro-λ^6-sulfanyl)phenyl]methoxy]azetidin-1-yl]-[6-[4-(trifluoromethyl)imidazol-1-yl]-2-azaspiro[3.3]heptan-2-yl]methanone] | 6.87 |
| O=C(N1CC2(CC(Cc3ccc(F)c(F)c3)C2)C1)N1CC2(CC(n3cnc(C4CC4)n3)C2)C1 [Example 50, (6-(3-cyclopropyl-1H-1,2,4-triazol-1-yl)-2-azaspiro[3.3]heptan-2-yl)(6-(3,4-difluorobenzyl)-2-azaspiro[3.3]heptan-2-yl)methanone] | 9.52 |
| O=C(N1CC(Oc2ccc(C3CC3)cc2F)C1)N1CC2(CC(n3cnc(C4CC4)n3)C2)C1 [Example 190, [3-(4-cyclopropyl-2-fluoro-phenoxy)azetidin-1-yl]-[6-(3-cyclopropyl-1,2,4-triazol-1-yl)-2-azaspiro[3.3]heptan-2-yl]methanone] | 9.70 |
| COc1cc(O[C@H]2C[C@@H]3CN(C(=O)N4CC5(CC(n6cnc(C7CC7)n6)C5)C4)C[C@@H]3C2)ccc1F [Example 131, [6-(3-cyclopropyl-1,2,4-triazol-1-yl)-2-azaspiro[3.3]heptan-2-yl]-[rac-(3aS,6aR)-5-(4-fluoro-3-methoxy-phenoxy)-3,3a,4,5,6,6a-hexahydro-1H-cyclopenta[c]pyrrol-2-yl]methanone] | 8.23 |
| O=C(N1CC2(CC(Oc3ccc(C(F)(F)F)nc3)C2)C1)N1CC2(CC(c3ccc(C(F)(F)F)nc3)C2)C1 [Example 525, [6-[6-(trifluoromethyl)-3-pyridyl]-2-azaspiro[3.3]heptan-2-yl]-[6-[[6-(trifluoromethyl)-3-pyridyl]oxy]-2-azaspiro[3.3]heptan-2-yl]methanone] | 6.16 |
| O=C(N1CC(c2ccc(OC(F)(F)F)c(Cl)c2)C1)N1CC2(CC(n3cnc(C4CC4)n3)C2)C1 [Example 53, [3-[3-chloro-4-(trifluoromethoxy)phe-nyl]azetidin-1-yl]-[6-(3-cyclopropyl-1,2,4-triazol-1-yl)-2-azaspiro[3.3]heptan-2-yl]methanone] | 9.15 |
| O=C(N1CC(c2ccc(N3CC(C(F)(F)F)C3)nc2)C1)N1CC2(CC(n3cnc(C4(O)CC4)n3)C2)C1 [Example 496, [6-[3-(1-hydroxycyclopropyl)-1,2,4-triazol-1-yl]-2-azaspiro[3.3]heptan-2-yl]-[3-[6-[3-(trifluoromethyl)azetidin-1-yl]-3-pyridyl]azetidin-1-yl]methanone] | 8.03 |
| O=C(N1CC(c2cnc(N3CC[C@@H](C(F)(F)F)C3)nc2)C1)N1CC2(CC(n3cnc(C4CC4)n3)C2)C1 [Example 482, [6-(3-cyclopropyl-1,2,4-triazol-1-yl)-2-azaspiro[3.3]heptan-2-yl]-[3-[2-[(3R)-3-(trifluoromethyl)pyrrolidin-1-yl]pyrimidin-5-yl]azetidin-1-yl]methanone] | 8.90 |
